Structures can show the parent of a compound that is named as a salt.
Assays:
Ae. aegypti [1] = experiment: Blood-feeding assay after ingestion of compound in 10% sucrose; type: in vivo, Aedes aegypti
Description: Sucrose solution was withheld from newly-emerged mosquitoes for two days. On the third day, the mosquitoes were presented with a cotton ball saturated with 400 μL of a 10% sucrose solution laced with compound or the respective control for five days. The cotton ball was exchanged every other day with a fresh one. Seven to ten-day old female mosquitoes were treated with compound or appropriate control through microinjection post cold-anesthetization or ingestion. Two mL of human O^+ blood (BioChemed Services, Winchester, VA) was utilized to cover the concave surface of an inverted baby food jar. Hog intestine sealed the opening to simulate the puncturing of a host’s skin. The feeding membrane was placed on the top of a mosquito cage, and hot water was poured into the jar to warm the blood. After a 45-minute feed, the mosquitoes were immediately preserved at −20 °C. The blood meal size was determined for each mosquito via hemoglobinometry as previously described. Luminescence and calcium assay data were normalized and fitted with a non-linear least squares regression to generate dose-response curves, EC50 and IC50 values. Unpaired t-tests or Dunnett’s multiple comparisons test were performed accordingly to compare EC50 or IC50 values. Locomotion was measured based on the distance required for flight recovery. Data were compared with the Kruskal-Wallis and Dunnett’s multiple comparison tests after the Kolmogorov-Smirnov normality test was conducted. In the blood-feeding experiments, the percentage of blood-fed mosquitoes was calculated for each treatment group. For each biological replicate, the treatment groups were normalized with respect to the untreated group. Dunnett’s multiple comparison tests were utilized to determine statistical difference between normalized data. Size of bloodmeals were compared with an unpaired t-test or Mann-Whitney test after normality was evaluated with the Kolmogorov-Smirnov test. All analyses were performed utilizing GraphPad Prism version 7.00 for Mac OS X, GraphPad Software, La Jolla California USA, www.graphpad.com.

Ae. aegypti [2] = experiment: Mortality on 10% sucrose solution containing compound; type: in vivo; settings: after a three-day period
Description: The serotonergic system was manipulated to identify its role in blood-feeding behavior. To allow for the depletion of 5-HT, mosquitoes were fed a 10% sucrose solution containing varying concentrations (1, 5, 10, 25, and 60 mg/mL) of PCPA ethyl ester, a compound that […] tryptophan hydroxylase, a crucial enzyme in 5-HT synthesis. At the two highest concentrations (25 and 60 mg/mL), there was a 100% mortality rate after a three-day period. […] In comparison to the control group, which ingested an average volume of 1.87μL of blood, the average blood meal size for 1 and 5 mg/mL PCPA-treated groups was 1.84 ± 0.16 μL (p = 0.89) and 2.33 ± 0.25 μL (p = 0.12), respectively.
Sucrose solution was withheld from newly-emerged mosquitoes for two days. On the third day, the mosquitoes were presented with a cotton ball saturated with 400 μL of a 10% sucrose solution laced with compound or the respective control for five days. The cotton ball was exchanged every other day with a fresh one.

AGAP002232 [3] = target: T1, AGAP002232 (Anopheles gambiae, UniProt A0A1S4GEY1); experiment: Fluo-4 calcium assay in CRE-luc2P HEK-293 cells expressing AGAP002232; type: cell-based; settings: for Response to biogenic amines: 10^−4 M, AGAP002232; for Ability to inhibit activity in a dose-response manner: antagonist test, receptor not given, taken as both 5-HT2 cell lines
Description: The GloResponse™ CRE-luc2P human embryonic kidney (HEK-293) reporter cells were incubated at 37 °C with an atmosphere of 5% CO2, and maintained in Dulbecco’s Modified Eagle Medium (DMEM) supplemented with 10% fetal bovine serum (FBS) and […] hygromycin B. Transfection of the HEK-293 cells with 1 μg of plasmid DNA was performed with Amaxa Nucleofector™ technology (Lonza, Basel, Switzerland) as per manufacturer’s instructions. A week post-transfection, selective pressure was applied with […] of G418 antibiotic to generate stable lines.
(§1) 1 × 10^6 cells per well were seeded into a 96-well black all-clear bottom plate and incubated overnight in 10% FBS/90% DMEM at 37 °C with an atmosphere of 5% CO2. The following day, 2X Fluo-4 Direct calcium dye (Molecular Devices LLC, San Jose, CA) was added to each well and incubated in the same conditions for 45 minutes before the assay was completed. At this time, serial dilutions of the test compounds were prepared in a 96-well clear flat bottom plate. Fluorescence levels were determined with a FlexStation3 microplate reader, with excitation and emission wavelengths set to 485 and 525 nm, respectively (Molecular Devices LLC). Basal fluorescence levels were measured for 17 seconds, at which time, 25 μl of the agonist compound was added. Fluorescence measurements continued to be recorded for a total of 120 seconds at 2-second intervals. When testing antagonists, cells were treated with the compound prior to determination of fluorescence levels.
(§2) Luminescence and calcium assay data were normalized and fitted with a non-linear least squares regression to generate dose-response curves, EC50 and IC50 values. Unpaired t-tests or Dunnett’s multiple comparisons test were performed accordingly to compare EC50 or IC50 values. Locomotion was measured based on the distance required for flight recovery. Data were compared with the Kruskal-Wallis and Dunnett’s multiple comparison tests after the Kolmogorov-Smirnov normality test was conducted. In the blood-feeding experiments, the percentage of blood-fed mosquitoes was calculated for each treatment group. For each biological replicate, the treatment groups were normalized with respect to the untreated group. Dunnett’s multiple comparison tests were utilized to determine statistical difference between normalized data. Size of bloodmeals were compared with an unpaired t-test or Mann-Whitney test after normality was evaluated with the Kolmogorov-Smirnov test. All analyses were performed utilizing GraphPad Prism version 7.00 for Mac OS X, GraphPad Software, La Jolla California USA, www.graphpad.com.

AGAP002229 [4] = target: T2, AGAP002229 (Anopheles gambiae, UniProt A7UR33); experiment: Fluo-4 calcium assay in CRE-luc2P HEK-293 cells expressing AGAP002229; type: cell-based; settings: for Response to biogenic amines: 10^−4 M; for Response to biogenic amines / Receptor activation by agonist: AGAP002229; for Ability to inhibit activity in a dose-response manner: antagonist test, receptor not given, taken as both 5-HT2 cell lines
Description: A week post-transfection, selective pressure was applied with […] of G418 antibiotic to generate stable lines.
as §1, with “Fluorescence levels were determined with a FlexStation3 microplate reader, with excitation and emission wavelengths set to 485 and 525 nm, respectively (Molecular Devices LLC). Basal fluorescence levels were measured for 17 seconds, at which time, 25 μl of the agonist compound was added.” left out
as §2

AGAP002229 [5] = target: T2, AGAP002229; experiment: GloResponse CRE-luc2P cyclic AMP reporter (luminescence) assay, AGAP002229; type: cell-based; settings: 10^−4 M
Description: (§3) The reporter construct in the HEK-293 cells regulated the transcription of the luciferase gene in response to cAMP levels, while the Rluc-Neo^r construct in the pF9a expression plasmid served as a normalizing agent. Cells suspended in 1% FBS/99% DMEM without phenol red were seeded in white 96-well plates at a density of 6.6 × 10^5 per well, and immediately treated with varying concentrations of compounds. Following a 4-hour incubation at 37 °C with an atmosphere of 5% CO2, the cells were prepared for a Dual-Glo luciferase assay according to the manufacturer’s instructions (Promega Corporation, Madison, WI). The luminescence units were measured on the SpectraMax L 96 microplate luminometer (Molecular Devices, Sunnyvale, CA) and normalized to the cell number.

AGAP002232 [6] = target: T1, AGAP002232; experiment: GloResponse CRE-luc2P cyclic AMP reporter (luminescence) assay, AGAP002232; type: cell-based; settings: 10^−4 M
Description: as §3

Ae. aegypti [7] = experiment: Flight performance in flight cylinder after microinjection; type: in vivo, Aedes aegypti
Description: (§4) Stock solutions of the compounds were diluted to the appropriate concentrations in 1X phosphate buffer solution (PBS). To account for potential solvent effects, an ultrapure H2O control group was included in every independent experiment. Female mosquitoes were either cold- or CO2-anesthetized. A Nanoject II Auto-Nanoliter Injector (Drummond Scientific Company, Broomall, PA) was then utilized to microinject 69 nL of compound into the spiracle.
A flight cylinder was assembled as described previously. The polyacrylamide sheet was coated with Tangle-Trap Sticky Coating (The Scotts Company LLC, Marysville, OH) and allowed to sit overnight before insertion into the flight cylinder. Adult mosquitoes were anesthetized on a CO2 pad and microinjected with the compound or ultrapure H2O control. Post-injection, they were permitted to recover in a fly vial for 30 minutes before being ejected into the flight cylinder. After each trial, the distance between the top of the cylinder and the trapped mosquito was recorded. Mosquitoes captured in the fly vial at the bottom of the cylinder were considered to be incapable of flying and a distance of 91.5 cm was recorded.
as §2

Ae. aegypti [8] = experiment: Blood-feeding assay (artificial membrane feeder) after microinjection; type: in vivo, Aedes aegypti; settings: 10 mM microinjected
Description: as §4
Seven to ten-day old female mosquitoes were treated with compound or appropriate control through microinjection post cold-anesthetization or ingestion. Two mL of human O^+ blood (BioChemed Services, Winchester, VA) was utilized to cover the concave surface of an inverted baby food jar. Hog intestine sealed the opening to simulate the puncturing of a host’s skin. The feeding membrane was placed on the top of a mosquito cage, and hot water was poured into the jar to warm the blood. After a 45-minute feed, the mosquitoes were immediately preserved at −20 °C. The blood meal size was determined for each mosquito via hemoglobinometry as previously described.
as §2

5-HT7 receptors = test system: 5-HT7 receptors; set-up: method as in PMID 11282322; settings: in humans; cited from earlier work
An. gambiae = settings: cited from earlier work

T1 sequence (A0A1S4GEY1 entry or part of it): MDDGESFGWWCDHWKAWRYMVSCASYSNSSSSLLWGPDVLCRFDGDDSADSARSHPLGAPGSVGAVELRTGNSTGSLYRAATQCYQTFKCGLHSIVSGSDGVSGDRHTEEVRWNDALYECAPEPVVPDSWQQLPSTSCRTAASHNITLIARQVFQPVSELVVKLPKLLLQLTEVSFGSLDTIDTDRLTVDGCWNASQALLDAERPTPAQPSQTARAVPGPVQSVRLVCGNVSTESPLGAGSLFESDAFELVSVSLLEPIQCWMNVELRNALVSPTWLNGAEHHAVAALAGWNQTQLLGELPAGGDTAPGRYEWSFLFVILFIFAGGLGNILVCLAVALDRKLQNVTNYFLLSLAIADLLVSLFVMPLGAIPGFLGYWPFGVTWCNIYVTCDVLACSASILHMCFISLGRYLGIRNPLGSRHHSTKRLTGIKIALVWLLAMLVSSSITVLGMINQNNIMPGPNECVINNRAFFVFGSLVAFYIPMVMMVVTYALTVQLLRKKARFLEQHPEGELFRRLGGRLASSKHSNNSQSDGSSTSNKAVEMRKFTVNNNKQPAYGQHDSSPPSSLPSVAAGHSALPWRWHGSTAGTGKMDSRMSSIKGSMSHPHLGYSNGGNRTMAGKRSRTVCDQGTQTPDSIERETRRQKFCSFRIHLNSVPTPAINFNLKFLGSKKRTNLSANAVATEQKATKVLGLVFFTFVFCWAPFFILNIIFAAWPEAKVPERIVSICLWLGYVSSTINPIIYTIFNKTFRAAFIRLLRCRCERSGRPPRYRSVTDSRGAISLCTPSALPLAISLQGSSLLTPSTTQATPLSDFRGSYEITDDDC
T2 sequence (A7UR33 entry or part of it): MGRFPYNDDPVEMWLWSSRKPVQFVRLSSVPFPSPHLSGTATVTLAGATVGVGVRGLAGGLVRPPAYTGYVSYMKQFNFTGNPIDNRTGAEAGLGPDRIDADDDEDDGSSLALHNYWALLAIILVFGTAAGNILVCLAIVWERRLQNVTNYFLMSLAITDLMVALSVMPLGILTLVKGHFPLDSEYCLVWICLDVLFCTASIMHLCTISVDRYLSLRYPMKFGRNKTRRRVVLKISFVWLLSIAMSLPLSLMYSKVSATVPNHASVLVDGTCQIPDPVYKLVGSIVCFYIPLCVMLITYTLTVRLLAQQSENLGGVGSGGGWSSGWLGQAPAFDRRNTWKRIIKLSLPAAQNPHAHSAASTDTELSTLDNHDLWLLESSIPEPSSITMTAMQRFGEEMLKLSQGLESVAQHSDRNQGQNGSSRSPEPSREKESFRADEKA

In the case of `CCOC(=O)C(N)Cc1ccc(Cl)cc1.Cl` (racemic) [PCPA ethyl ester, 4-chloro-DL-chlorophenylalanine ethyl ester hydrochloride], the “Average blood meal size” value (Ae. aegypti [1]; 1 mg/mL in 10% sucrose) is reported as 1.84 ± 0.16 µL, the “Feeding success or blood meal volume versus control” value (Ae. aegypti [1]; 1 mg/mL in 10% sucrose) is reported as “did not demonstrate any significant difference” and the “Average blood meal size” value (Ae. aegypti [1]; 5 mg/mL in 10% sucrose) is reported as 2.33 ± 0.25 µL. For the same compound, the “Feeding success or blood meal volume versus control” value (Ae. aegypti [1]; 5 mg/mL in 10% sucrose) was “did not demonstrate any significant difference”, the “Average blood meal size” value (Ae. aegypti [1]; 10 mg/mL in 10% sucrose) was 3.53 ± 0.16 µL and the “Blood feeding success rate” value (Ae. aegypti [1]; 10 mg/mL in 10% sucrose) was 73.2%. For the same compound, the Mortality rate (Ae. aegypti [2]; 25 mg/mL in 10% sucrose) was 100% and the Mortality rate (Ae. aegypti [2]; 60 mg/mL in 10% sucrose) was 100%.
With `NCC(O)c1ccc(O)cc1` (racemic) [octopamine, (±)-octopamine hydrochloride] the “Response to biogenic amines” value (AGAP002232 [3]) was “indiscernible from background levels” and the “Response to biogenic amines” value (AGAP002229 [4]) was “indiscernible from background levels”.
For `NCCc1c[nH]c2ccc(O)cc12` [5-HT, serotonin hydrochloride], the EC50 (AGAP002232 [3]) was 1900 nM, the “Receptor response (cyclic AMP) under Gαs and Gαi/o conditions” value (AGAP002229 [5]) was “no measurable responses” and the “Receptor response (cyclic AMP) under Gαs and Gαi/o conditions” value (AGAP002232 [6]) was “no measurable responses”. For the same compound, the “Effect on flight compared to H2O alone” value (Ae. aegypti [7]; 10 mM) was “did not affect flight”, the “Average distance in flight cylinder” value (Ae. aegypti [7]; 10 mM, Fig. 5c) was 25.1 cm and the Ability to fly (Ae. aegypti [7]; concentrations greater than 10 mM) was “completely inhibited the mosquitoes’ ability to fly”. The EC50 (AGAP002229 [4]) was 87.4 nM and the “Successfully blood-fed, normalized to the untreated group” value (Ae. aegypti [8]) was “approximately 80%”.
For `COc1ccc2[nH]cc(CCN)c2c1` [5-MT, 5-methoxytryptamine], the EC50 (AGAP002229 [4]) was 1080 nM and the “Receptor activation by agonist” value (AGAP002229 [4]) was “able to activate”.
In the case of `NCCc1c[nH]c2ccc(C(N)=O)cc12` [5-carboxamidotryptamine], the “Affinity for 5-HT7 receptors” value (5-HT7 receptors) is listed as “strong affinity”.
For `CCCN(CCC)C1CCc2cccc(O)c2C1` (stereo not shown) [8-OH-DPAT], the “Affinity for 5-HT7 receptors” value (5-HT7 receptors) is listed as “strong affinity”.
In the case of `CN(C)CCCC1(c2ccc(F)cc2)OCc2cc(C#N)ccc21` (stereo not shown) [citalopram], the “Flight after microinjection into the thorax” value (An. gambiae) is listed as “severe flight defects and a prolonged time for flight recovery”.
In the case of `NCCc1ccc(O)c(O)c1` [dopamine, dopamine hydrochloride], the “Response to biogenic amines” value (AGAP002232 [3]) is reported as “indiscernible from background levels” and the “Response to biogenic amines” value (AGAP002229 [4]) is reported as “indiscernible from background levels”.
In the case of `NCCc1c[nH]cn1` [histamine], the “Response to biogenic amines” value (AGAP002232 [3]) is reported as “indiscernible from background levels” and the “Response to biogenic amines” value (AGAP002229 [4]) is reported as “indiscernible from background levels”.
For `CN1CCN2c3ccccc3Cc3ccccc3C2C1` (stereo not shown) [mianserin, mianserin hydrochloride], the “Ability to inhibit activity in a dose-response manner” value (from here on “Ability to inhibit activity”) (AGAP002232 [3]) was “only the former two exhibited the ability to inhibit activity” and the “Ability to inhibit activity” value (AGAP002229 [4]) was “only the former two exhibited the ability to inhibit activity”.
With `O=C(CCCN1CCC2(CC1)C(=O)NCN2c1ccccc1)c1ccc(F)cc1` [spiperone] the “Ability to inhibit activity” value (AGAP002232 [3]) was “only the former two exhibited the ability to inhibit activity” and the “Ability to inhibit activity” value (AGAP002229 [4]) was “only the former two exhibited the ability to inhibit activity”.
In the case of `NCCc1c[nH]c2ccccc12` [tryptamine, tryptamine hydrochloride], the EC50 (AGAP002229 [4]) is reported as 2760 nM and the “Receptor activation by agonist” value (AGAP002229 [4]) is reported as “able to activate”.
In the case of `NCCc1ccc(O)cc1` [tyramine, tyramine hydrochloride], the “Response to biogenic amines” value (AGAP002232 [3]) is reported as “indiscernible from background levels” and the “Response to biogenic amines” value (AGAP002229 [4]) is reported as “indiscernible from background levels”.
In the case of `COC(=O)[C@@H]1[C@H]2C[C@H]3c4[nH]c5ccccc5c4CCN3C[C@@H]2CC[C@@H]1O` [yohimbine, yohimbine hydrochloride], the “Ability to inhibit activity” value (AGAP002232 [3]) is reported as “only the former two exhibited the ability to inhibit activity” and the “Ability to inhibit activity” value (AGAP002229 [4]) is reported as “only the former two exhibited the ability to inhibit activity”.

Reference: article PMC6418270, “The pharmacological and functional characterization of the serotonergic system in Anopheles gambiae and Aedes aegypti: influences on flight and blood-feeding behavior” (Scientific Reports, 2019)
